Laboratory results as given in patent EP2070549A1, “THERAPEUTIC AGENT FOR ACCELERATION OF SPINAL NERVE REPAIR COMPRISING DESACYL GHRELIN OR DERIVATIVE THEREOF AS ACTIVE INGREDIENT” (University of Miyazaki, priority 2006, dated 2008).

Key:
[1] = test system: cultured spinal neuronal cells; assay: BrdU incorporation into cultured spinal neuronal cells, Cell Proliferation ELISA (Example 3); assay type: cell-based, rat; conditions: for BrdU incorporation into the cells, Mean: n 6, Control = 100.0
Source text: Embryos were extracted from a pregnant Wistar rat at day 16 by opening the abdomen under anesthesia. Spinal cords were collected from these embryos and subjected to papain digestion in Hank's balanced salt solution; as a result of subsequent mechanical separation by pipetting, a dispersion of fetal spinal nerve cells was obtained. After being filtered and centrifuged, the dispersed cells were suspended in a DMEM medium containing NaHCO3, 5% fetal bovine serum, penicillin (100 U/mL) and streptomycin (100 µg/mL), followed by plating onto laminin-coated 96-well multi-plates at 10^5 cells per well. After incubation for 4 days, 5-bromo-2'-deoxyuridine (BrdU) (10 µM) was added and incubation was conducted for 6 hours; further, rat des-acyl ghrelin, des-acyl ghrelin(1-5)-NH2 (GSSFL-NH2, SEQ ID NO:22), des-acyl ghrelin(1-7)-NH2 (GSSFLSP-NH2, SEQ ID NO:23) or des-acyl ghrelin(1-15)-NH2 (GSSFLSPEHQRVQQR-NH2, SEQ ID NO:24) was added in amounts of 0.03 - 3 nM and incubation was conducted for 12 hours before investigating the action of des-acyl ghrelin and its derivatives on BrdU incorporation.
After the end of incubation, the cells were recovered and using Cell Proliferation ELISA Kit (Roche Diagnostic GmbH, Mannheim, Germany), the amount of BrdU incorporation into the cells was measured to investigate the action for proliferating the spinal neuronal cells.

[2] = test system: des-acyl ghrelin specific binding sites in the membrane fractions of fetal spinal cord; assay: Binding of [125I]-labelled des-acyl ghrelin to membrane fractions of fetal spinal cord (saturation and competition); set-up: species or system rat; conditions: competition with 0.1 nM labeled des-acyl ghrelin
Method: For instance, the identity of a substance that acts on a des-acyl ghrelin specific binding site, namely, the identity of a substance having binding activity for a des-acyl ghrelin specific binding site can be determined, as will be described later in Example 1, by first preparing samples from a tissue of interest (e.g., membrane fractions prepared from an extracted spinal cord tissue), then incubating the sample in the presence of a test substance, with or without an added radioactive ligand such as [^125I]-labeled des-acyl ghrelin, measuring the radioactivity of the samples, and analyzing the values obtained. For analysis of the values, techniques known to skilled artisans may be employed, as exemplified by the method of Scatchard and a program such as GraphPAD Prism 4 program, which are applied to calculate the maximum number of binding sites (Bmax) and the dissociation constant (Kd). The des-acyl ghrelin specific binding sites are yet to be characterized specifically but one place of their occurrence is in rat spinal cord cells, in particular, on rat spinal cord cell membranes. […]
With [^125I]-labelled des-acyl ghrelin used as a radioactive ligand, the binding of des-acyl ghrelin to the tissue membranes of fetal spinal cord was studied. […] The radioactivity of the membranes on the filters was measured with a gamma counter. […]

[3] = test system: cultured fetal spinal neuronal cells; assay: BrdU positive cells by anti-BrdU immunostaining in cultured fetal spinal neuronal cells (Example 2); assay type: cell-based, rat; conditions: compared to physiological saline, FIG. 2B, 2C
Method: • (1) Embryos were extracted from a pregnant Wistar rat at day 17 under anesthesia. Spinal cords were collected from these embryos and subjected to papain digestion in Hank's balanced salt solution; as a result of subsequent mechanical separation by pipetting, a dispersion of fetal spinal neurons was obtained. […] These dispersed cells were suspended in a DMEM medium containing NaHCO3, 5% fetal bovine serum, penicillin (100 U/mL) and streptomycin (100 µg/mL), followed by plating onto laminin-coated 96-well multi-plates at 10^5 cells per well. […]
• (3) After the end of the above incubation (1), the cells were fixed with methanol and glacial acetic acid, had their DNA denatured with 2 N HCl; thereafter, the BrdU incorporated into the cells was measured by detecting the BrdU positive cells using a rat anti-BrdU monoclonal antibody (1:1000, Abcam, Cambridge, UK) as a primary antibody, and also using Cy™ 3-conjugated donkey anti-rat IgG polyclonal antibody (1:1000, Jackson ImmunoResearch Laboratories, Inc., PA, USA) as a secondary antibody, in order to investigate the action for proliferating spinal cord cells. […]

[4] = test system: cultured fetal spinal neuronal cells; assay: BrdU incorporation into cultured fetal spinal neuronal cells, Cell Proliferation ELISA (Example 2); assay type: cell-based, rat; conditions: 0.03-300 nM tested, 12 hours, then BrdU 6 hours; FIG. 2A
Method: • (1) Embryos were extracted from a pregnant Wistar rat at day 17 under anesthesia. Spinal cords were collected from these embryos and subjected to papain digestion in Hank's balanced salt solution; as a result of subsequent mechanical separation by pipetting, a dispersion of fetal spinal neurons was obtained. […] These dispersed cells were suspended in a DMEM medium containing NaHCO3, 5% fetal bovine serum, penicillin (100 U/mL) and streptomycin (100 µg/mL), followed by plating onto laminin-coated 96-well multi-plates at 10^5 cells per well. After incubation for 4 days, des-acyl ghrelin (0.03-300 nM) was added to the culture and incubation was conducted for 12 hours; then, 5-bromo-2'-deoxyuridine (BrdU) ([…]) was added and incubation was conducted for an additional 6 hours; then, the des-acyl ghrelin was investigated for its action on BrdU incorporation.
• (2) After the end of the above incubation, the cells were recovered and using Cell Proliferation ELISA Kit (Roche Diagnostic GmbH, Mannheim, Germany), the amount of BrdU incorporation into the fetal spinal neuronal cells was measured to investigate the action for proliferating the spinal neuronal cells.

[5] = test system: rat models with injured spinal cord; assay: Grafting of spinal neuronal cells and local administration of des-acyl ghrelin to rat models with injured spinal cord, frequency of standing up; assay type: in vivo; conditions: for frequency of a rat standing up per unit time: 3-minute observation
Method: In accordance with the procedure described in Morino, T. et al, Neuroscience Research, 2003, vol. 46, pp 309-318, the grafting of spinal neuronal cells and local administration of des-acyl ghrelin to rat models with injured spinal cord were assessed. Male SD rats (8 to 9 weeks old) were anesthetized with pentobarbital and incised in the back to expose a vertebra ([…]). After excising the vertebral arch, a dental drill was used to open a window with a diameter of […], and a stainless steel needle with a silicone rubber fixed thereto was applied vertically, followed by loading of the top with a 20-g weight. Following a compression time of 30 minutes, a damaging drop equivalent to a weight of about 100 g was finally applied from above to construct models suffering a movement disorder in the lower limbs. The animals were divided into three groups: 1) a group under sham operation; 2) a control group with injured spinal cord; and 3) a group with injured spinal cord, treated by cell grafting, and locally administered with des-acyl ghrelin. The group under sham operation received laminectomy but was simply sutured in the muscle and skin thereafter. After injuring the spinal cord, cultured spinal neuronal cells (10^5 cells/25 µL) were grafted subdurally. Rat des-acyl ghrelin was administered subdurally in an amount of 1 nmol together with the cells.
Twenty-four hours after the operation, the rats were transferred into a see-through cage and observed for the frequency of their standing up (by 3-minute observation). The principal item of observation was the frequency per unit time of the rat standing up (in such a posture that it lifted the upper limbs and supported the body weight only with the lower limbs) was counted to assess the function of its hind limbs.

[6] = target: des-acyl ghrelin specific binding sites in membrane fractions of rat fetal spinal cord (rat); assay: saturation radioligand binding, rat fetal spinal cord membranes, Scatchard/GraphPAD Prism
[7] = target: des-acyl ghrelin specific binding sites in membrane fractions of rat fetal spinal cord (rat); assay: competition with 0.1 nM [125I]-des-acyl ghrelin on rat fetal spinal cord membranes

## Des-acyl ghrelin
[1]; 0.03 to 3 nM
  BrdU incorporation into the cells (in words): increased
[1]; Concentration 0.03 nM
  BrdU incorporation into the cells, Mean: 113.6
[1]; Concentration 0.3 nM
  BrdU incorporation into the cells, Mean: 112.6
[1]; Concentration 3 nM
  BrdU incorporation into the cells, Mean: 108.2
[2]
  concentrations at which the binding of the labeled des-acyl ghrelin was displaced: ≥ 10^-3 M
[2]; 4 °C for an hour
  IC50: 23.5 nM
[3]
  BrdU incorporation: increased
  number of cells that incorporated BrdU: increased
[4]
  concentration that could increase the BrdU incorporation into the cells: ≥ 3 nM
[5]; 24 hours after operation, 1 nmol subdurally together with grafted cells (10^5 cells/25 µL)
  frequency of a rat standing up per unit time: 8.0 ± 0.0
[5]; Initial (before operation)
  frequency of a rat standing up per unit time: 15.0 ± 2.0
[5]; combination of cell grafting and local administration, 24 hours after operation
  frequency of standing up (in words): recovery

## [^125I]-labelled des-acyl ghrelin (peptide)
[6]
  Bmax (fmol/mg protein): 8.79

## unlabelled des-acyl ghrelin (peptide)
[7]
  IC50: 23.5 nM
